Here are results for one molecule from patent US20120308673A1, “COMPOSITION COMPRISING THE EXTRACT OF PRUNELLA VULGARIS L. FOR PREVENTING AND TREATING ADHD DISEASE AND THE USE THEREOF” (priority 2009, published 2012).

In test [1] the test system is SHR animal model. Kind of test: Effect on hyperactivity of SHR animal model (total movement distance and duration in test box). The note with it: 3 mg/kg intraperitoneally, 30 mins after treatment, recorded for 10 mins. Format: in vivo, rat. The procedure: To test the inhibitory effect of the extract of […] prepared in Example 1 on the hyperactivity of SHR animals, following test was performed according to the procedure disclosed in the literature (Kong, W. X et al., Effect on taurine on rat behaviors in three anxiety models, (2006), Pharmacology Biochem., Behavior 83:271-276; Arulmozhi D. K. et al, Pharmacological studies of the aqueous extract of Sapindus trifoliatus on central nervous system: possible ant-migraine mechanism, J. Ethnophamacol., 97:491-496).
The rats were acclimated with the environment for 1 week and with apparatus more than once for 10 mins prior to test. PV70E and PVW prepared in Example 1 used as test groups as well as methylphenidate (Johnson Mattey Public Limited Co.) used as a positive control were intraperitoneally administered into mice in a dose of 3 mg/kg.
30 mins after the treatment with test samples, the SHR mice, i.e., ADHD animal models, and normal mice used as negative control were placed on the test box to examine the movement of mice and to determine the total movement distance and total movement duration of the mice for 10 mins using by analysis apparatus (EthoVision system; Noldus IT b.v., Netherland).

The test system of test [2] is SHR animal model. The test is described as follows: Effect on alternation behavior of SHR animal model (modified Y-maze test). It counts as in vivo, rat. The following applies: 8 min period, dose dependent, p<0.05, FIG. 3. The procedure: To test the inhibitory effect of the extract of […] prepared in Example 1 on the alternation behavior of SHR animals, following modified Y-maze test was performed according to the procedure disclosed in the literature (Sarter M., et al., Attenuation of scopolamine-induced impairment of spontaneous alternation by antagonist but not agonist and agonist beta-carbolines, (1988), Psychopharmacology (Berl). 94:491-495; Kim D. H. et al, Gomisin A improves scopolamine-induced memory impairment in mice, (2006), Eur. J. Pharmacol., 542:129-235).
The Y-maze test was conducted in a three-arm maze with angles of 120° between the arms designates as A, B and C respectively, which were 42 cm long and 3 cm wide with walls that were 12 cm high each. The maze floor and walls were constructed from dark opaque polyvinyl plastic. Mice were initially placed within one arm and the sequence and number of arm entries were recorded manually for each mouse over an 8 min period. The percentage of triads in which all the arms were represented, i.e., ABC, CAB or BCA but not BAB, was recorded as an ‘alternation’ to estimate short-term memory. Control group animals received 0.9% saline solution and scopolamine (1 mg/kg, i.p.) or vehicle was introduced to induce memory impairment 30 mins before the test. […] The alternation score (%) for each mouse was calculated according to following math formula 1: […]

Consider `COC(=O)C(c1ccccc1)C1CCCCN1` (stereo not drawn) [methylphenidate], for which the “general movement of SHR (total movement distance and rearing number)” value in test [1] (SHR, FIGS. 1 and 2) is on record as “did not affect”. Also, the “movement of normal mice” value in test [1] (normal mice) is “increased the movement”. The “alternation behavior of SHR” value in test [2] was “inhibiting effect”.
